Columns and labels:
[1] = target: T1, Sphingosine 1-phosphate receptor 4 (Homo sapiens) (UniProt O95977); assay: Agonist activity at human S1P4R expressed in human U2OS cells containing EDG6 gene co-expressing GAL4-VP16 and beta-arrestin/TEV protease assessed as migration of VP16-GAL4 into nucleus at 50 uM by […] based beta-lactamase reporter gene assay; assay type: functional, cell-based
T1 sequence (whole entry): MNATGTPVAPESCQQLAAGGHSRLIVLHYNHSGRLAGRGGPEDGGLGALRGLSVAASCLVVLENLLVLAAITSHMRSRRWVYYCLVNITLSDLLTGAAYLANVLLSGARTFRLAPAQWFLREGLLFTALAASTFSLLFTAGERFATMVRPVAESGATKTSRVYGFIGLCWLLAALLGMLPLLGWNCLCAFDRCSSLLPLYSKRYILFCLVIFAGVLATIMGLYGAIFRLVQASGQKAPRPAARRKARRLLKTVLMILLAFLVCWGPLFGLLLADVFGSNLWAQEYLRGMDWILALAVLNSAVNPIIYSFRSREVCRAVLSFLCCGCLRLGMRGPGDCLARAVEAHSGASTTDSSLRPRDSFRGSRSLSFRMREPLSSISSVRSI

[2] = target: T2, Sphingosine 1-phosphate receptor 4 (Homo sapiens, UniProt O95977); assay: Agonist activity at human S1P4R expressed in human U2OS cells containing EDG6 gene co-expressing GAL4-VP16 and beta-arrestin/TEV protease assessed as migration of VP16-GAL4 into nucleus by […] based beta-lactamase reporter gene assay; assay type: functional, cell-based
T2 sequence (O95977 whole entry): T1 sequence (whole entry)

[3] = target: Sphingosine 1-phosphate receptor 1 (Homo sapiens, UniProt P21453); assay: Agonist activity at S1P1R up to 25 uM; assay type: functional
Sphingosine 1-phosphate receptor 1, sequence (P21453 whole entry): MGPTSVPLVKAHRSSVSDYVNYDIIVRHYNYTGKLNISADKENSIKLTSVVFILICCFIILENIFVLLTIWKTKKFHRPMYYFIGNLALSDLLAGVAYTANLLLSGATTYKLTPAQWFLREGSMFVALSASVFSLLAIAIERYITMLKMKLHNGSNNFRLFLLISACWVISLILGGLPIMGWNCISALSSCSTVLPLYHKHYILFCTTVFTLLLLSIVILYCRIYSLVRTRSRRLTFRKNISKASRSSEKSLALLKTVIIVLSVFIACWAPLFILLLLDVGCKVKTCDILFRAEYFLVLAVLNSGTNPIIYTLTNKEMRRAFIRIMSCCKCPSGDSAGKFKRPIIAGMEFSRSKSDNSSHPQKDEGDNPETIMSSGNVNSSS

[4] = target: Sphingosine 1-phosphate receptor 2 (Homo sapiens, UniProt O95136); assay: Agonist activity at S1P2R up to 25 uM; assay type: functional
Sphingosine 1-phosphate receptor 2, sequence (O95136 whole entry): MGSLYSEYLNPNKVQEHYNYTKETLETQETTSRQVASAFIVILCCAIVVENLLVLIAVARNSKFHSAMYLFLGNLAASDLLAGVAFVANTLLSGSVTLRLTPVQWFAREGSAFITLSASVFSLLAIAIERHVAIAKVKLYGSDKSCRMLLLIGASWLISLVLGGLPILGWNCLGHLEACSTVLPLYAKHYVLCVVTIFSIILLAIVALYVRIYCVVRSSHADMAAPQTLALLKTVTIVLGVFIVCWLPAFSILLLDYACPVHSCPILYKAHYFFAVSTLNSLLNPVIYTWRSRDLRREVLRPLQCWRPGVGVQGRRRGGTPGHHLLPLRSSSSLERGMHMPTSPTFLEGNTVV

[5] = target: Sphingosine 1-phosphate receptor 3 (Homo sapiens, UniProt Q99500); assay: Agonist activity at S1P3R up to 25 uM; assay type: functional
Sphingosine 1-phosphate receptor 3, sequence (Q99500 whole entry): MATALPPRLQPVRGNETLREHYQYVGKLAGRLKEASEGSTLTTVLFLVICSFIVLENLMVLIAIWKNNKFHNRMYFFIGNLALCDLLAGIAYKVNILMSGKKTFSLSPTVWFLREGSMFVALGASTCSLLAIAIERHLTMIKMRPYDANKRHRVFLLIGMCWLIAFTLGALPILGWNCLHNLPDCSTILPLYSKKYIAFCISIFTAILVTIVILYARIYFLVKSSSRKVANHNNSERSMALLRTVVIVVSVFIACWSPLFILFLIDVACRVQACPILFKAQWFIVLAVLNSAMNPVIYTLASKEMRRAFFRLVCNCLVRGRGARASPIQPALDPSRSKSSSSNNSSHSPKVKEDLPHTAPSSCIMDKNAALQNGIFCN

[6] = target: Sphingosine 1-phosphate receptor 5 (Homo sapiens, UniProt Q9H228); assay: Agonist activity at S1P5R up to 25 uM; assay type: functional
Sphingosine 1-phosphate receptor 5, sequence (Q9H228 whole entry, the tested form may be a part): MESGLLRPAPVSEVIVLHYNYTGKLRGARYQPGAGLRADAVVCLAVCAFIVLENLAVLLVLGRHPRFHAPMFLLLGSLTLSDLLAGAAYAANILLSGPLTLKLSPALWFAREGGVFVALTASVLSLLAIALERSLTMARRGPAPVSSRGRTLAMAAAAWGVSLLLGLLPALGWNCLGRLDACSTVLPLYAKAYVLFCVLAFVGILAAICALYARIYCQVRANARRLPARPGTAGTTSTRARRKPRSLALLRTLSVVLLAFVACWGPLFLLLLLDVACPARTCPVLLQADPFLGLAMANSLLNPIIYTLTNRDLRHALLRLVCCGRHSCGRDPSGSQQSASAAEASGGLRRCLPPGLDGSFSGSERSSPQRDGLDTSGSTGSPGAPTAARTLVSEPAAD

[7] = target: T2, Sphingosine 1-phosphate receptor 4; assay: Agonist activity at human S1P4R expressed in human U2OS cells containing EDG6 gene co-expressing GAL4-VP16 and beta-arrestin/TEV protease assessed as migration of VP16-GAL4 into nucleus up to 25 uM by […] based beta-lactamase reporter gene assay; assay type: functional, cell-based
[8] = target: T1, Sphingosine 1-phosphate receptor 4 (Homo sapiens); assay: Agonist activity at human S1P4R expressed in human U2OS cells containing EDG6 gene co-expressing GAL4-VP16 and beta-arrestin/TEV protease assessed as migration of VP16-GAL4 into nucleus at 1300 nM by […] based beta-lactamase reporter gene assay; assay type: functional, cell-based
[9] = target: T1, Sphingosine 1-phosphate receptor 4 (Homo sapiens); assay: Agonist activity at human S1P4R expressed in human U2OS cells containing EDG6 gene co-expressing GAL4-VP16 and beta-arrestin/TEV protease assessed as migration of VP16-GAL4 into nucleus at 2600 nM by […] based beta-lactamase reporter gene assay; assay type: functional, cell-based
[10] = target: T1, Sphingosine 1-phosphate receptor 4 (Homo sapiens); assay: Agonist activity at human S1P4R expressed in human U2OS cells containing EDG6 gene co-expressing GAL4-VP16 and beta-arrestin/TEV protease assessed as migration of VP16-GAL4 into nucleus at 6000 nM by […] based beta-lactamase reporter gene assay; assay type: functional, cell-based

| Compound | EC50 [2] | EC50 [7] | other results |
| --- | --- | --- | --- |
| Cc1ccc(OCCOc2ccc(F)cc2F)c([N+](=O)[O-])n1 |  |  | inhibition [1]: 40% |
| Cc1ccc(OCCOc2ccc(Cl)cc2Cl)c(I)n1 | 54 nM |  | EC50 [3]: Not Active; EC50 [4]: Not Active; EC50 [5]: Not Active; EC50 [6]: Not Active |
| Cc1ccc(OC(=O)COc2ccc(Cl)cc2Cl)c([N+](=O)[O-])n1 |  | Not Active |  |
| Cc1ccc(OCCOc2ccc(Cl)cc2Cl)c(-c2ccccc2)n1 |  | Not Active |  |
| Cc1ccc(OCCOc2cc(Cl)ccc2Cl)c([N+](=O)[O-])n1 |  | Not Active |  |
| O=Cc1ccc(OCCOc2ccc(Cl)cc2Cl)c(I)n1 | 2100 nM |  |  |
| Cc1ccc(OCCOc2ccc(Cl)cc2)c([N+](=O)[O-])n1 |  | Not Active |  |
| Cc1ccc(OCCOc2c(Cl)cc(Cl)cc2Cl)c([N+](=O)[O-])n1 | 570 nM |  | EC50 [3]: Not Active; EC50 [4]: Not Active; EC50 [5]: Not Active; EC50 [6]: Not Active |
| Clc1ccc(OCCOc2cccnc2Br)c(Cl)c1 | 1300 nM |  |  |
| O=Cc1ccc(OCCOc2ccc(Cl)cc2Cl)c(Cl)n1 | 1800 nM |  |  |
| OCc1ccc(OCCOc2ccc(Cl)cc2Cl)c(I)n1 | 287 nM |  | EC50 [3]: Not Active; EC50 [4]: Not Active; EC50 [5]: Not Active; EC50 [6]: Not Active |
| Cc1ccc(OCCOc2ccc(Cl)c(Cl)c2)c([N+](=O)[O-])n1 |  | Not Active |  |
| Cc1ccc(OCCOc2cc(Cl)cc([N+](=O)[O-])c2)c([N+](=O)[O-])n1 | 3500 nM |  |  |
| Cc1ccc(OCCOc2ccccc2Cl)c([N+](=O)[O-])n1 |  | Not Active |  |
| Cc1ccc(OCCOc2ccc(Cl)cc2Cl)c(Br)n1 | 52 nM |  | EC50 [3]: Not Active; EC50 [4]: Not Active; EC50 [5]: Not Active; EC50 [6]: Not Active |
| Cc1ccc(OC2CCCC2Oc2ccc(Cl)cc2Cl)c([N+](=O)[O-])n1 (stereo unspecified) |  | Not Active |  |
| Cc1ccc(OCCOc2ccc(Br)cc2C(F)(F)F)c([N+](=O)[O-])n1 | 601 nM |  | EC50 [3]: Not Active; EC50 [4]: Not Active; EC50 [5]: Not Active; EC50 [6]: Not Active |
| Cc1ccc(OCCOc2ccc([N+](=O)[O-])cc2F)c([N+](=O)[O-])n1 | 2800 nM |  |  |
| Cc1ccc(OCCOc2ccc(Cl)cc2Cl)c(C(=O)O)n1 |  | Not Active |  |

| Compound | EC50 [2] | EC50 [7] | other results |
| --- | --- | --- | --- |
| Cc1ccc(OCCOc2ccc(Cl)cc2Cl)c(C(=O)N(C)C)n1 |  | Not Active |  |
| Cc1ccc(OCCCOc2ccc(Cl)cc2Cl)c([N+](=O)[O-])n1 |  | Not Active |  |
| Cc1ccc(OCCOc2ccc(Cl)cc2Cl)c([N+](=O)[O-])c1 | 1300 nM |  | inhibition [8]: 40% |
| Cc1ccc(OCCOc2ccc(F)cc2Cl)c([N+](=O)[O-])n1 | 2600 nM |  |  |
| Cc1ccc(OCCOc2ccc(-c3ccccc3)cc2Cl)c([N+](=O)[O-])n1 |  | Not Active |  |
| Cc1ccc(OCCOc2ccc(Cl)cc2Cl)cn1 |  | Not Active |  |
| Cc1ccc(OCCOc2ccc(Cl)cc2Cl)c(C)n1 | 2600 nM |  | inhibition [9]: 65% |
| Cc1ccc(OCCOc2ccc(Br)cc2Cl)c([N+](=O)[O-])n1 | 220 nM |  | EC50 [3]: Not Active; EC50 [4]: Not Active; EC50 [5]: Not Active; EC50 [6]: Not Active |
| C=Cc1ccc(OCCOc2ccc(Cl)cc2Cl)c(Cl)n1 | 658 nM |  |  |
| CCc1nc(C)ccc1OCCOc1ccc(Cl)cc1Cl | 7300 nM |  |  |
| COC(=O)c1nc(C)ccc1OCCOc1ccc(Cl)cc1Cl | 4800 nM |  |  |
| COc1ccc(OCCOc2ccc(C)nc2[N+](=O)[O-])c(Cl)c1 | 3900 nM |  |  |
| Cc1ccc(OCCCc2ccc(Cl)cc2Cl)c([N+](=O)[O-])n1 | 920 nM |  |  |
| Cc1ccc(NCCOc2ccc(Cl)cc2Cl)c([N+](=O)[O-])n1 |  | Not Active |  |
| O=[N+]([O-])c1ncccc1OCCOc1ccc(Cl)cc1Cl | 2980 nM |  |  |
| Cc1ccc(OCCOc2cccc(Cl)c2Cl)c([N+](=O)[O-])n1 |  | Not Active |  |
| Cc1ccc2oc(COc3ccc(Cl)cc3Cl)nc2n1 |  | Not Active |  |
| Fc1ccc(OCCOc2ccc(Cl)cc2Cl)c(Br)n1 | 208 nM |  |  |
| O=[N+]([O-])c1nc(Cl)ccc1OCCOc1ccc(Cl)cc1Cl | 304 nM |  | EC50 [3]: Not Active; EC50 [4]: Not Active; EC50 [5]: Not Active; EC50 [6]: Not Active |

Further lines, with some results ahead:

| EC50 [2] | EC50 [7] | Compound | other results |
| --- | --- | --- | --- |
| 5400 nM |  | COc1cc(Cl)ccc1OCCOc1ccc(C)nc1[N+](=O)[O-] |  |
|  | Not Active | Cc1cc(C)c(OCCOc2ccc(Cl)cc2Cl)c(Br)n1 |  |
|  | Not Active | Cc1ccc(OCCOc2ccc(Cl)cc2Cl)c(CO)n1 |  |
|  | Not Active | Cc1ccc(OCCOc2ccccc2)c([N+](=O)[O-])n1 |  |
|  | Not Active | CC(C)=Cc1ccc(OCCOc2ccc(Cl)cc2Cl)c(Cl)n1 |  |
| 7200 nM |  | Cc1ccc(OCCOc2ccc(C)nc2[N+](=O)[O-])c(C)c1 |  |
| 1500 nM |  | OCc1ccc(OCCOc2ccc(Cl)cc2Cl)c(Cl)n1 |  |
| 46 nM |  | Clc1ccc(OCCOc2ccc(Br)nc2Br)c(Cl)c1 | EC50 [3]: Not Active; EC50 [4]: Not Active; EC50 [5]: Not Active; EC50 [6]: Not Active |
| 3100 nM |  | Cc1ccc(OCCOc2ccc(Cl)cc2F)c([N+](=O)[O-])n1 |  |
|  | Not Active | Cc1ccc(OCCc2ccc(Cl)cc2Cl)c([N+](=O)[O-])n1 |  |
| 232 nM |  | Cc1ccc(OCCOc2ccc(Cl)cc2Br)c([N+](=O)[O-])n1 | EC50 [3]: Not Active; EC50 [4]: Not Active; EC50 [5]: Not Active; EC50 [6]: Not Active |
| 162 nM |  | Cc1ccc(OCCOc2ccc(Cl)cc2Cl)c([N+](=O)[O-])n1 | EC50 [3]: Not Active; EC50 [4]: Not Active; EC50 [5]: Not Active; EC50 [6]: Not Active |
|  | Not Active | COCc1ccc(OCCOc2ccc(Cl)cc2Cl)c(Cl)n1 |  |
|  | Not Active | Cc1ccc(OCCOc2ccc(Cl)cc2Cl)c(N)n1 |  |
| 6000 nM |  | Clc1ccc(OCCOc2ccc(-c3ccccc3)nc2Br)c(Cl)c1 | inhibition [10]: 70% |
| 45 nM |  | FCc1ccc(OCCOc2ccc(Cl)cc2Cl)c(Cl)n1 | EC50 [3]: Not Active; EC50 [4]: Not Active; EC50 [5]: Not Active; EC50 [6]: Not Active |
